This is an account of results in patent publication US7524834B2, “Sterile powders, formulations, and methods for producing the same” (AstraZeneca AB, priority 1997, dated 2009).

Test [1] has as its system Bacillus subtilis (globigii) spores. The test is described as follows: Heat sterilization at 110° C. of powder inoculated with spore suspension (Example 2). As to conditions: for Spore population, After / Spore population, Before: 0.5 g sample; for Spore population, After: after 110° C. for 3 hours and 10 min; for Spore population, Before: before heat treatment; for Spore log reduction: 110° C. for 3 hours and 10 min. As to the method:
Samples of 0.5 g of budesonide and of 0.5 g of calcium stearate were each inoculated with 0.1 ml of a Steris Bacillus subtilis (globigii) (Lot#LG126B) spore suspension containing 1.5×10^7 spores. Each sample was subjected to a temperature of 110° C. for 3 hours and 10 min in a Baxter Constant Temperature Oven using the same technique as in Example 1. The spore population of the samples was measured and the results obtained are shown below in Table 2.

The subject of the next test is spore suspension. The experiment in a line: Decimal reduction time of spores in inoculated glucocorticosteroids at 110° C. (Example 7). As to conditions: for D110 value: Heating at 110° C., spore suspension different from Example 6. The protocol:
1 g of micronized budesonide, prednisolone and beclomethasone dipropionate and 0.5 g of rofleponide were inoculated with a different spore suspension to the one used in Example 6.
The samples were heat treated at 110° C. A sample was withdrawn after various heating times. The number of spores/g were determined by a pour plate technique according to US Pharmacopoeia 23/NF18, 1995, pp. 1681-1686, especially p. 1684.
From the number of spores before and after heat treatment the log reduction of spores and decimal reduction time (time needed at a specified temperature to reduce the number of microorganisms with one log) was calculated.

The next test relates to S. epidermidis. The experiment in a line: Heat resistance of microorganisms inoculated on budesonide powder (Example 3). As to the method:
(§1) Tests were performed to evaluate the heat resistance of various naturally occurring microorganisms.
(§2) Samples of 0.5 g of budesonide powder were each inoculated with approximately 10^2-10^3 viable ATCC microorganisms in 120 ml open-ended polypropylene container. Each sample was subjected to a temperature of 110° C. for 3 hours and 10 min. The microorganism population of the samples was measured before and after heat treatment and the results obtained are shown below in Table 3.

In a further test the test system is B. subtilis ATCC 6633. The description is as above. Particulars: for Microorganism population, After: after 110° C. for 3 hours and 10 min; for Microorganism population, Before: before heat treatment. As to the method: as §1, §2
A further test has as its system C. sporegenes. The test is described as above. As to the method:
as §1, §2

Another test deals with Ps. Aeruginosa. The description is as above. The protocol:
as §1, §2

Another test deals with M. luteus. The test is described as above. The protocol: as §1, §2
For another test, the system named is A. niger. Described as above. As to the method:
as §1, §2

The next test relates to C. albicans. The test is described as above. The protocol:
as §1, §2

The subject of the next test is E. coli. The test is described as above. As to the method: as §1, §2
In a further test the test system is Salmonella typhi. Described as above. The protocol: as §1, §2
The subject of the next test is Bacillus subtilis spores. The test is described as follows: Spore kill kinetics in inoculated micronized budesonide at 100, 110, 120° C., pour plate (Example 6). As to the method:
5 g of micronized budesonide was inoculated with approximately 2 ml of a spore suspension of Bacillus subtilis.
The substance and the spore suspension were mixed and dried for approximately 3 hours at 55° C. The inoculated and dried budesonide was mixed with 20-40 g of non-inoculated micronized budesonide.
5 g portions of this sample were heat treated at 100° C., 110° C. or 120° C. in a Heraeus ST 5060 heating apparatus. A 1 g sample was withdrawn after various heating times at the respective heating temperatures. Each such 1 g sample was transferred to 10 ml of dilution medium pH 7.2. Appropriate dilutions were made in 0.1% Peptone Aqueous solution and the number of spores/g were determined by a pour plate technique according to US Pharmacopoeia 23/NF18, 1995, pp. 1681-1686, especially p. 1684.
The number of spores before heat treatment were determined in samples heated at 80° C. for 10 min in order to kill the vegetative cells.
The results are shown in Table 6. where the DT value is the amount of time in minutes required to obtain a log 1 reduction in the number of spores before and after heat treatment at the temperature T (in ° C.).

The mark [2] stands for this setting: after 110° C. for 3 hours and 10 min.
Setting [3] is: B. subtilis ATCC 6633, low inoculum.
The mark [4] stands for this setting: 100° C. series, before heat treatment (80° C. 10 min).
Setting [5] is: 110° C. series, before heat treatment (80° C. 10 min).
Setting [6] is: 120° C. series, before heat treatment (80° C. 10 min).

On to calcium stearate, for which, in test [1], the “Spore population, After” value is on record as 3.3 × 10^6 spores; the “Spore population, Before” value is 1.5 × 10^7 spores; the Spore log reduction result was “less than 0.7”.

For the compound `C[C@]12C=CC(=O)C=C1CC[C@@H]1[C@@H]2[C@@H](O)C[C@@]2(C)[C@H]1CC[C@]2(O)C(=O)CO` [Prednisolone, prednisolone], the “D110 value” in the test with spore suspension is listed as 73.8 min.

`CCCC1O[C@@H]2C[C@H]3[C@@H]4CCC5=CC(=O)C=C[C@]5(C)[C@H]4[C@@H](O)C[C@]3(C)[C@]2(C(=O)CO)O1` (stereo partly shown) [Budesonide, budesonide]: the “Microorganism population, After” value in the test on S. epidermidis (setting [2]) was 0; in the test with B. subtilis ATCC 6633 (B. subtilis ATCC 6633, high inoculum, singular bacillus species in 10^0 dilution plate), 1^1; in the test on B. subtilis ATCC 6633 (setting [3]) it was 0; in the test on C. sporegenes (setting [2]) it was 0; in the test on Ps. Aeruginosa (setting [2]), 0; in the test on M. luteus (setting [2]), 0. The “Microorganism population, After” value with A. niger (setting [2]), with C. albicans (setting [2]), in the test on E. coli (setting [2]) and in the test with Salmonella typhi (setting [2]) was 0 throughout. Besides, the “Microorganism population, Before” value in the test with S. epidermidis (before heat treatment) is on record as 240; with B. subtilis ATCC 6633 (B. subtilis ATCC 6633, high inoculum) it was 1.2 × 10^5; in the test on B. subtilis ATCC 6633 (setting [3]), 300; in the test on C. sporegenes (before heat treatment), 160; in the test with Ps. Aeruginosa (before heat treatment), 350; in the test with M. luteus (before heat treatment), 300. In addition, the “Microorganism population, Before” value in the test with A. niger (before heat treatment) amounted to 260; in the test with C. albicans (before heat treatment) it was 780; in the test with E. coli (before heat treatment), 450; in the test on Salmonella typhi (before heat treatment), 270. Also, the “Spore population, After” value in test [1] is less than 10 spores. For the same compound, in test [1], the “Spore population, Before” value is reported as 1.5 × 10^7 spores. For the same compound, the Spore log reduction result in test [1] was “greater than 6.2”. Further, in the test on spore suspension, the “D110 value” is recorded as 41 min. Also, the “D100 (time for log 1 reduction in number of spores)” value in the test on Bacillus subtilis spores (100° C.) was “D100 = 41.5 min; correlation coefficient = −0.0996 This means that it takes 6 × 41.5 minutes to obtain a log 6 reduction in the number of spores at a temperature of 100 °C”. Further, the log spores/g with Bacillus subtilis spores (setting [4]) is 6.81; in the test with Bacillus subtilis spores (100° C., 15 min) it was 3.68; with Bacillus subtilis spores (100° C., 45 min), 2.85; with Bacillus subtilis spores (100° C., 75 min), 2.23; in the test on Bacillus subtilis spores (setting [5]), 6.20; with Bacillus subtilis spores (110° C., 5 min), 4.32. Also, the log spores/g in the test with Bacillus subtilis spores (110° C., 15 min) was determined as 2.97; in the test on Bacillus subtilis spores (110° C., 20 min), 2.55; with Bacillus subtilis spores (setting [6]), 6.19; in the test on Bacillus subtilis spores (120° C., 4 min), 2.28; with Bacillus subtilis spores (120° C., 6 min), 1.74; with Bacillus subtilis spores (120° C., 8 min), 1.30. Also, the spores/g with Bacillus subtilis spores (setting [4]) is given as 6.5 × 10^6 spores/g; in the test on Bacillus subtilis spores (100° C., 15 min), 4.8 × 10^3 spores/g; in the test with Bacillus subtilis spores (100° C., 45 min), 7.1 × 10^2 spores/g; with Bacillus subtilis spores (100° C., 75 min), 1.7 × 10^2 spores/g; in the test with Bacillus subtilis spores (setting [5]) it was 2 × 10^6 spores/g; with Bacillus subtilis spores (110° C., 5 min), 2.08 × 10^4 spores/g. Moreover, the spores/g is given as 9.25 × 10^2 spores/g in the test on Bacillus subtilis spores (110° C., 15 min); 3.55 × 10^2 spores/g in the test with Bacillus subtilis spores (110° C., 20 min); 1.5 × 10^6 spores/g in the test on Bacillus subtilis spores (setting [6]); 1.9 × 10^2 spores/g in the test on Bacillus subtilis spores (120° C., 4 min); 5.5 × 10^1 spores/g in the test on Bacillus subtilis spores (120° C., 6 min); 2 × 10^1 spores/g in the test with Bacillus subtilis spores (120° C., 8 min). Besides, the “D110 (time for log 1 reduction in number of spores)” value in the test on Bacillus subtilis spores (110° C.) is “D110 = 8.3 min; correlation coefficient = −0.995 This means that it takes 6 × 8.3 minutes to obtain a log 6 reduction in the number of spores at a temperature of 110 °C”. The “D120 (time for log 1 reduction in number of spores)” value in the test on Bacillus subtilis spores (120° C.) was “D120 = 4.1 min; correlation coefficient = −0.998 This means that it takes 6 × 4.1 minutes to obtain a log reduction in the number of spores at a temperature of 120 °C”.

`CCC(=O)OCC(=O)[C@@]1(OC(=O)CC)[C@@H](C)C[C@H]2[C@@H]3CCC4=CC(=O)C=C[C@]4(C)[C@@]3(Cl)[C@@H](O)C[C@@]21C` [Beclomethasone dipropionate, beclomethasone dipropionate]: the “D110 value” in the test with spore suspension amounted to 72.7 min.

For the compound `CCC[C@@H]1O[C@@H]2C[C@H]3[C@@H]4C[C@H](F)C5=CC(=O)CC[C@]5(C)[C@@]4(F)[C@@H](O)C[C@]3(C)[C@]2(C(=O)CO)O1` [Rofleponide, rofleponide], the “D110 value” in the test with spore suspension is 9.8 min. Also, the Spore kill entry in the test on spore suspension (full 1.0 g sample, cycle times ≧5 minutes at 110° C., D110 could not be calculated) is given as “total kill”.
